According to patent US9512106B2, “Smoothened modulators and methods of use thereof” (Duke University, priority 2012, dated 2016):
Where two headings read alike, the source gives them in different places. Blank lines part the entries; values can stand above or below the compound they belong to.

Experiments:
[1] = tested on: cerebellar granular cell precursor (GCP) cells; assay: GCP cell proliferation ([3H]-thymidine incorporation); format: cell-based, mouse; settings: read-out: IC50, inhibition of GCP proliferation
Procedure: FIG. 4. Compound A8 inhibits Gli-reporter activity and GCP proliferation. […] Cells were then exposed to [3H]-thymidine for 16 h and [3H]-thymidine incorporation was measured. Data were fit using Graphpad Prism (mean±SEM, n=3).
Primary neuronal granular cell precursor (GCP) cells were obtained from the cerebellum of 7-day postnatal C57BL/6 mice and labeled with [3H]-thymidine. Proliferation assays were performed as previously described28.

Smo-633 = molecular target: T1, Smo-633 (Homo sapiens, UniProt Q99835); assay: Smo/βarr2-GFP translocation high-throughput imaging assay (antagonist mode); format: cell-based; settings: for inhibition of intracellular βarr2-GFP aggregation: U2OS cells with Smo-633 and βarr2-GFP, 5 μM
T1 construct: expressed in transfected cells
From the text: U2OS cells stably expressing a chimera Smo-633 receptor and βarr2-GFP were used in HTS screening.
To identify novel Smo inhibitors, we screened chemical libraries using our confocal imaging, cell-based platform assay as the primary high-throughput screening assay. […] Thus, small molecule inhibitors of Smo are identified by the loss of the punctate pattern.
To control for receptor specificity and to rule-out non-specific mechanisms, hits were cross-screened in the same assay format using the vasopressin2 receptor (V2R), a different seven-transmembrane receptor. In this control assay, cells transfected with V2R and βarr2-GFP are stimulated with the agonist arginine vasopressin. […] This control assay helps ensure the mechanism of inhibition is Smo receptor specific and allows molecules with non-specific mechanisms of inhibition to be ruled-out.

wild-type Smo = molecular target: T2, wild-type Smo (Homo sapiens, UniProt Q99835); assay: [3H]-cyclopamine competitive binding, wild-type Smo; settings: 25 nM [3H]-cyclopamine; for displacement of [3H]-cyclopamine from wild-type Smo: U2OS cells overexpressing wild-type Smo; for Ki: fixed U2OS cells overexpressing wild-type Smo, mean±SEM, read-out: Ki, displacement of [3H]-cyclopamine from Smo
T2 construct: expressed in transfected cells; host or cells: U2OS
Procedure: (§1) FIG. 3. […] The displacement data were analyzed by fitting to a one-site competition curve using Graphpad Prism. Data were acquired in triplicates from three independent experiments and are presented as the mean±SEM.
(§2) For competitive binding assays, U2OS cells overexpressing wild-type Smo or Smo-D473H mutant receptors were grown in 24-well plates and fixed with 4% (v/v) formaldehyde/PBS for 20 min at room temperature (RT).

[2] = Storage of the active impurity in solution, activity retained; format: physicochemical; settings: room temperature, DMSO or methanolic solution, 1 week
From the text: Subsequent characterization of this impurity by high-resolution mass spectrometry (HRMS) and by extensive NMR analysis allowed assignment of structure to the impurity as shown for Compound A8 (FIG. 2A). Confirmation of the structural assignment was achieved by synthesis of authentic material using the route described in FIG. 2B. Synthesized material matched the isolated material from the library sample by extensive NMR analysis, HRMS, TLC and HPLC.

Smo-D473H = molecular target: T3, Smo-D473H (Homo sapiens, UniProt Q99835, D473H); assay: [3H]-cyclopamine competitive binding, Smo-D473H mutant; settings: for competition for binding / displacement of [3H]-cyclopamine from Smo-D473H: U2OS cells overexpressing Smo-D473H
T3 construct: expressed in transfected cells; host or cells: U2OS
Procedure: as §1, §2

[3] = tested on: Shh-induced Gli reporter activity; assay: Gli-luciferase reporter assay in Shh-LIGHT2 cells; format: cell-based
Procedure: FIG. 4. […] Cells were then exposed to [3H]-thymidine for 16 h and [3H]-thymidine incorporation was measured. Data were fit using Graphpad Prism (mean±SEM, n=3).
The Gli-luciferase assay was conducted in Shh-LIGHT2 cells, a clonal NIH3T3 cell line stably incorporating Gli-dependent firefly luciferase and constitutive Renilla luciferase reporters35. Cells were treated with purified Sonic Hedgehog protein (50 ng/mL) together with the corresponding compounds for 2 days. The reporter activity was determined by using the Dual-Luciferase Reporter Assay System (Promega).

Hh-induced hair growth = assay: Hair regrowth after depilation, topical treatment; format: in vivo, mouse; settings: C57BL/6 female mice, 0.5 mM, 30 μl topically daily for two weeks
Procedure: Eight-week-old C57BL/6 female mice were shaved on the dorsal surface and depilated with Nair® (Carter-Wallace, New York, N.Y.). Briefly, the bottom half of the shaved area was treated with Nair for 2 min, and the depilated area rinsed with water to remove residual Nair. Compound A8 was dissolved in a vehicle of 95% acetone/5% DMSO at a concentration of 0.5 mM, and 30 μl of A8 solution or the vehicle were applied topically to the depilated area of mice daily for two weeks. Mice were anesthetized briefly using 3% isoflurane anesthetic inhalant during all procedures. Five mice were included in each treatment group. All animals were treated in accordance with protocols approved by Institutional Animal Care and Use Committee at Duke University.
Hedgehog signaling plays a key role in regulating hair follicle growth40. To determine the efficacy of the novel Smo inhibitor A8 in suppressing Hh signaling in vivo, we used a model of hedgehog inhibition that examines inhibition of hair-growth41-43. Eight-week old Female C57BL mice in telogen phase of the hair cycle were used in these experiments44. Chemical depilation with Nair® induces anagen phase and regrowth of hair by activating the Hh signaling pathway. In our experiments, most of the hair on the back of vehicle treated mice grew back 2 weeks after removal with Nair (data not shown).

[4] = molecular target: T4, vasopressin2 receptor (V2R) (Homo sapiens, UniProt P30518); settings: cells transfected with V2R and βarr2-GFP, arginine vasopressin stimulated; cited from earlier work
T4 construct: expressed in transfected cells

[5] = mouse GCP cells, 48 hours with Shh, then [3H]-thymidine 16 h, mean±SEM, n=3

T1 sequence (Q99835 with tags, fused parts or gaps limits assumed): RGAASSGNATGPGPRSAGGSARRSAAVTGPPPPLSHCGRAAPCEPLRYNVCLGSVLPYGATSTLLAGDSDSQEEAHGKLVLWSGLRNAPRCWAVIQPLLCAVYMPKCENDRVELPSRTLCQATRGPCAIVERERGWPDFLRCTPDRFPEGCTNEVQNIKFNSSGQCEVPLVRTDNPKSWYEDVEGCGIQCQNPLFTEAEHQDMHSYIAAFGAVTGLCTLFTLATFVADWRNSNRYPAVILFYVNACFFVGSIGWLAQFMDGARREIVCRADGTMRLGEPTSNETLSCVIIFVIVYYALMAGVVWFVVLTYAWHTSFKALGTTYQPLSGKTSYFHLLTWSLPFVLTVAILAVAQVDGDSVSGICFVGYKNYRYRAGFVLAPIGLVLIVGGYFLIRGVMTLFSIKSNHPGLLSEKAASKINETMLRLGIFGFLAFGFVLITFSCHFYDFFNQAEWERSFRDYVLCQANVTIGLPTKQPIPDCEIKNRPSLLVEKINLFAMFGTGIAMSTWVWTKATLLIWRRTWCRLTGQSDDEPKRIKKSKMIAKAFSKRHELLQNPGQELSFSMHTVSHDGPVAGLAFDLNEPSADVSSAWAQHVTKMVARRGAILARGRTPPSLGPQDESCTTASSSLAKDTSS
T2 sequence (Q99835 28-787): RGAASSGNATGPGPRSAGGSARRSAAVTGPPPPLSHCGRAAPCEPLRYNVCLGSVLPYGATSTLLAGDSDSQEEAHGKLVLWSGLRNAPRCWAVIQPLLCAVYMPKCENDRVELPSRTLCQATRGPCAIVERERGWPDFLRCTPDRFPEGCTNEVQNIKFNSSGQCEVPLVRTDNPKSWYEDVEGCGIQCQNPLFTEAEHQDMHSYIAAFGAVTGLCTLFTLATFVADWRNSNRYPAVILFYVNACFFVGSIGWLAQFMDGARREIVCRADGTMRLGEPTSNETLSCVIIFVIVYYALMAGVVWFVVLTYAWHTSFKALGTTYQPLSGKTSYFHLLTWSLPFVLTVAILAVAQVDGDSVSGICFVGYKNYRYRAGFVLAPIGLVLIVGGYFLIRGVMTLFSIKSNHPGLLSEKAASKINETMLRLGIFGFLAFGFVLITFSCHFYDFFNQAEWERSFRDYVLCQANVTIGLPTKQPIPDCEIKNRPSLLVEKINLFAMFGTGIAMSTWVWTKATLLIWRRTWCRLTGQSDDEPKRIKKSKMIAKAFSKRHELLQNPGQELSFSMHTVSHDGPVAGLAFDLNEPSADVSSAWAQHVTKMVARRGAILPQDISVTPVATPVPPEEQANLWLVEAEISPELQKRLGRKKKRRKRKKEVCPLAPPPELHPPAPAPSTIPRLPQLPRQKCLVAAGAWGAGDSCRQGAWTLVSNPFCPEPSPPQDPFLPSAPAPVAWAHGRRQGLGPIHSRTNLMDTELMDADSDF
T3 sequence (Q99835 28-787 D473H): as the sequence (Q99835 28-787) above, with D446H counted along it
T4 sequence (P30518 whole entry, species assumed): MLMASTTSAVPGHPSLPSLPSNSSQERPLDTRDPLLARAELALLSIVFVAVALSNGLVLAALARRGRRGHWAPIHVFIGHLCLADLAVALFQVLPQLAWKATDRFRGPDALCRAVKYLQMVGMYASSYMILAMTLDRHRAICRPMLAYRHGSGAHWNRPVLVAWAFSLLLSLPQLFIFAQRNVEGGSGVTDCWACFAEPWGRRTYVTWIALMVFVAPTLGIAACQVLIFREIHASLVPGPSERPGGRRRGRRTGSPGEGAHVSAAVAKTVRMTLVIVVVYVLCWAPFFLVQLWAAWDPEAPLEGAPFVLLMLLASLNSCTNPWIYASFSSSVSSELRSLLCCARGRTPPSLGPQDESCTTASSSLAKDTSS

Structure (SMILES): O=C(NC1CCN(Cc2ccc(N3CCC(NC(=O)c4cccc(-c5cccnc5)c4)CC3)nc2)CC1)c1cccc(-c2cccnc2)c1 [Compound A8]
- IC50 [1, 5]: 16.6 ± 2.3 nM
- inhibition of intracellular βarr2-GFP aggregation (Smo-633): activity of the synthesized material was confirmed
- displacement of [3H]-cyclopamine from wild-type Smo (wild-type Smo): completely displaced
- Ki (wild-type Smo): 37.9 ± 3.7 nM
- activity after storage in solution [2]: retained activity
- competition for binding / displacement of [3H]-cyclopamine from Smo-D473H (Smo-D473H): completely displace
- Ki (Smo-D473H; fixed U2OS cells overexpressing Smo-D473H, 25 nM [3H]-cyclopamine, mean±SEM, read-out: Ki, displacement of [3H]-cyclopamine from Smo-D473H receptors): 478 ± 123 nM
- IC50 ([3]; Shh-LIGHT2 cells, Sonic Hedgehog 50 ng/mL, mean±SEM, n=3, read-out: IC50, inhibition of Shh-induced Gli reporter activity): 2.6 ± 0.4 nM
- Hh-induced hair growth (Hh-induced hair growth): largely inhibited

- displacement of [3H]-cyclopamine from wild-type Smo (wild-type Smo): completely displaced
- displacement of [3H]-cyclopamine from Smo-D473H at high concentration (Smo-D473H; 10 μM compound): only partially displaced
- competition for binding / displacement of [3H]-cyclopamine from Smo-D473H (Smo-D473H): largely ineffective
Structure (SMILES): CS(=O)(=O)c1ccc(C(=O)Nc2ccc(Cl)c(-c3ccccn3)c2)c(Cl)c1 [GDC-0449]
- IC50 [1, 5]: 16.4 ± 2.5 nM

Structure (SMILES): Cc1c(C(=O)Nc2ccc(N3C[C@@H](C)O[C@@H](C)C3)nc2)cccc1-c1ccc(OC(F)(F)F)cc1 [LDE-225]
- displacement of [3H]-cyclopamine from wild-type Smo (wild-type Smo): completely displaced
- Ki (wild-type Smo): 6 ± 1.4 nM
- competition for binding / displacement of [3H]-cyclopamine from Smo-D473H (Smo-D473H): largely ineffective

Structure (SMILES): CCN(C)Cc1ccc(N2CCC(NC(=O)c3cccc(-c4cccnc4)c3)CC2)nc1 [Tripos 3910]
- Smo antagonist activity of resynthesized sample compared to previous test samples (Smo-633; material synthesized at Duke, assay not specified): substantially reduced Smo antagonist activity

Structure (SMILES): CC1=C2C[C@H]3[C@@H](CC=C4C[C@@H](O)CC[C@@]43C)[C@@H]2CC[C@]12O[C@@H]1C[C@H](C)CN[C@H]1[C@H]2C [cyclopamine]
- IC50 ([1]; Mus musculus): 414 ± 73 nM
- inhibition of intracellular βarr2-GFP aggregation (Smo-633): inhibits the aggregation of βarr2-GFP
- displacement of [3H]-cyclopamine from wild-type Smo (wild-type Smo): completely displaced
- inhibition of aggregation of V2R and βarr2-GFP [4]: not inhibited
- competition for binding / displacement of [3H]-cyclopamine from Smo-D473H (Smo-D473H): completely displace
- inhibition of the Gli-reporter activity ([3]; 1 μM concentration): strong inhibition
